Data: ChEMBL document CHEMBL1201862, “PubChem BioAssay data set” (2004)
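How tested: cells in 96-well plates exposed to compound for 48 hours at five concentrations. GI50 = concentration required for 50% inhibition of growth.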 Calls of active or inactive are those of the source. No stated cut-off is given here; in the data, active = GI50 up to about 1.1 µM and inactive = higher.

Assays:
Experiment in all cases: inhibition of tumour cell growth, NCI panel, 48 h
SK-MEL-5 = system: SK-MEL-5
UO-31 = system: UO-31
NCI/ADR-RES = system: NCI/ADR-RES
SK-MEL-2 = system: SK-MEL-2
HCT-116 = system: HCT-116
MDA-N = system: MDA-N
SNB-75 = system: SNB-75
MDA-MB-435 = system: MDA-MB-435
SW-620 = system: SW-620
SNB-19 = system: SNB-19
BT-549 = system: BT-549
Malme-3M = system: Malme-3M
K562 = system: K562
A498 = system: A498
SK-MEL-28 = system: SK-MEL-28
786-0 = system: 786-0
IGROV-1 = system: IGROV-1
HOP-62 = system: HOP-62
PC-3 = system: PC-3
UACC-257 = system: UACC-257

SMILES	GI50 (SK-MEL-5)	GI50 (UO-31)	GI50 (NCI/ADR-RES)	GI50 (SK-MEL-2)	GI50 (HCT-116)	GI50 (MDA-N)	GI50 (SNB-75)	GI50 (MDA-MB-435)	GI50 (SW-620)	GI50 (SNB-19)	GI50 (BT-549)	GI50 (Malme-3M)	GI50 (K562)	GI50 (A498)	GI50 (SK-MEL-28)	GI50 (786-0)	GI50 (IGROV-1)	GI50 (HOP-62)	GI50 (PC-3)	GI50 (UACC-257)
CSC(=O)c1sc(SC)[n+](-c2ccccc2)c1O	20.8 µM (inactive)	17.3 µM (inactive)	30.3 µM (inactive)	22 µM (inactive)	16.8 µM (inactive)	17 µM (inactive)	13.1 µM (inactive)	18.7 µM (inactive)	15.5 µM (inactive)	19.6 µM (inactive)	15.1 µM (inactive)	21.6 µM (inactive)	16.6 µM (inactive)	30.1 µM (inactive)	17.7 µM (inactive)	17.9 µM (inactive)	19.2 µM (inactive)	17 µM (inactive)	14 µM (inactive)	
Cn1c(CCC2(C)Cc3ccccc3C(=O)O2)cc2ccccc2c1=O (stereo not drawn)	17.2 µM (inactive)	15.7 µM (inactive)	26.3 µM (inactive)	24.2 µM (inactive)		22.6 µM (inactive)	22.4 µM (inactive)	19.4 µM (inactive)		55.6 µM (inactive)	21.8 µM (inactive)	35.2 µM (inactive)	2.96 µM (inactive)	25.1 µM (inactive)	28.8 µM (inactive)	96.6 µM (inactive)	27.3 µM (inactive)	18.5 µM (inactive)	17.7 µM (inactive)	
CCc1c(N=[N+]=[N-])c2ccccc2oc1=O		> 100 µM (inactive)	> 100 µM (inactive)		> 100 µM (inactive)	> 100 µM (inactive)	69.3 µM (inactive)	> 100 µM (inactive)	> 100 µM (inactive)		> 100 µM (inactive)	> 100 µM (inactive)	> 100 µM (inactive)	> 100 µM (inactive)	> 100 µM (inactive)	> 100 µM (inactive)	49.7 µM (inactive)	> 100 µM (inactive)	> 100 µM (inactive)	> 100 µM (inactive)
CSc1csc(-c2ccc(-c3ccc(-c4cc(SC)cs4)s3)s2)c1	> 100 µM (inactive)	> 100 µM (inactive)	> 100 µM (inactive)	> 100 µM (inactive)	> 100 µM (inactive)	> 100 µM (inactive)	> 100 µM (inactive)	> 100 µM (inactive)	> 100 µM (inactive)	> 100 µM (inactive)	> 100 µM (inactive)	> 100 µM (inactive)	> 100 µM (inactive)		> 100 µM (inactive)	> 100 µM (inactive)	> 100 µM (inactive)	> 100 µM (inactive)	> 100 µM (inactive)	> 100 µM (inactive)
CN(C(=O)Cc1ccc(Cl)c(Cl)c1)[C@@H]1CCCC[C@H]1[N+]1(C)CC=CC1	> 100 µM (inactive)	> 100 µM (inactive)	> 100 µM (inactive)	> 100 µM (inactive)	> 100 µM (inactive)	> 100 µM (inactive)		> 100 µM (inactive)	> 100 µM (inactive)	> 100 µM (inactive)	> 100 µM (inactive)	> 100 µM (inactive)	> 100 µM (inactive)	> 100 µM (inactive)	> 100 µM (inactive)	> 100 µM (inactive)	> 100 µM (inactive)	> 100 µM (inactive)	> 100 µM (inactive)	> 100 µM (inactive)
COc1ccc(-c2c(/C=N/OCC(=O)O)c3sc4ccccc4n3c2/C=N/OCC(=O)O)cc1	> 50 µM (inactive)	11.9 µM (inactive)	> 50 µM (inactive)	> 50 µM (inactive)	> 50 µM (inactive)	> 50 µM (inactive)	> 50 µM (inactive)	> 50 µM (inactive)	> 50 µM (inactive)	> 50 µM (inactive)	> 50 µM (inactive)	> 50 µM (inactive)	> 50 µM (inactive)		> 50 µM (inactive)	> 50 µM (inactive)	> 50 µM (inactive)	> 50 µM (inactive)	> 50 µM (inactive)	> 50 µM (inactive)
Cc1ccc(/C=C2\CCS(=O)(=O)c3ccccc3C2=O)cc1		12.6 µM (inactive)	11.5 µM (inactive)	21.9 µM (inactive)	13.1 µM (inactive)	28 µM (inactive)	16.7 µM (inactive)	20.6 µM (inactive)	18.1 µM (inactive)	16.1 µM (inactive)	17.5 µM (inactive)		> 100 µM (inactive)	21.2 µM (inactive)	17.8 µM (inactive)	16.3 µM (inactive)	11.4 µM (inactive)	26.7 µM (inactive)	20.4 µM (inactive)	18.5 µM (inactive)
Cc1ccc([N+](=O)[O-])cc1S(=O)(=O)Nc1ccc(C2=NN(S(=O)(=O)c3cc([N+](=O)[O-])ccc3C)C(c3ccco3)C2)cc1 (stereo not drawn)	30.3 µM (inactive)	41.1 µM (inactive)	40.3 µM (inactive)	38 µM (inactive)	31.9 µM (inactive)	43.9 µM (inactive)	> 100 µM (inactive)	54.7 µM (inactive)	> 100 µM (inactive)	46.1 µM (inactive)	25.8 µM (inactive)	47.2 µM (inactive)	31 µM (inactive)		> 100 µM (inactive)	48.8 µM (inactive)	29.6 µM (inactive)	45.2 µM (inactive)	45.5 µM (inactive)	11.1 µM (inactive)
Cc1cc(C)nc(NS(=O)(=O)c2ccc(Nc3c4ccccc4nc4c(C(=O)NCCO)cccc34)cc2)n1	17.1 µM (inactive)	> 10 µM (inactive)	48.5 µM (inactive)	11.8 µM (inactive)		18.1 µM (inactive)	3.27 µM (inactive)	16.6 µM (inactive)	16.7 µM (inactive)	16.6 µM (inactive)	17.6 µM (inactive)	14.8 µM (inactive)	12.4 µM (inactive)	38.5 µM (inactive)	19.6 µM (inactive)	> 10 µM (inactive)	25.8 µM (inactive)	9.31 µM (inactive)	23.2 µM (inactive)	> 10 µM (inactive)
CCOP(=O)(/C=C\n1cc(C)c(=O)[nH]c1=O)OCC	> 100 µM (inactive)		> 100 µM (inactive)	> 100 µM (inactive)	> 100 µM (inactive)	> 100 µM (inactive)	> 100 µM (inactive)	> 100 µM (inactive)	> 100 µM (inactive)	> 100 µM (inactive)	> 100 µM (inactive)		> 100 µM (inactive)	> 100 µM (inactive)	> 100 µM (inactive)	> 100 µM (inactive)	> 100 µM (inactive)	> 100 µM (inactive)	> 100 µM (inactive)	> 100 µM (inactive)
CC12CC(c3ccccc3O1)C(C(=O)Nc1cccc(F)c1)C(=O)N2 (stereo not drawn)	22.8 µM (inactive)	7.78 µM (inactive)	26.6 µM (inactive)	> 100 µM (inactive)	91.2 µM (inactive)	54 µM (inactive)		38.8 µM (inactive)	84.9 µM (inactive)	> 100 µM (inactive)	23.5 µM (inactive)	> 100 µM (inactive)	35.4 µM (inactive)	> 100 µM (inactive)	78.2 µM (inactive)	> 100 µM (inactive)	40.7 µM (inactive)	> 100 µM (inactive)	49.1 µM (inactive)	40.2 µM (inactive)
C=CCN(c1cc(OC)c2c(c1[N+](=O)[O-])C(C)(SC)C(=O)N2)S(C)(=O)=O (stereo not drawn)	> 100 µM (inactive)	> 100 µM (inactive)	> 100 µM (inactive)	> 100 µM (inactive)	> 100 µM (inactive)	> 100 µM (inactive)	91.6 µM (inactive)	> 100 µM (inactive)	> 100 µM (inactive)	96.6 µM (inactive)	> 100 µM (inactive)	97.5 µM (inactive)	> 100 µM (inactive)	> 100 µM (inactive)	> 100 µM (inactive)	87.7 µM (inactive)	> 100 µM (inactive)		> 100 µM (inactive)	> 100 µM (inactive)
C=C1CC[C@@H]2[C@](C)(COC(=O)CCC(=O)OC)CCC[C@@]2(C)[C@@H]1CCC1=CC(=O)OC1	30.5 µM (inactive)	> 100 µM (inactive)	72.8 µM (inactive)	43.4 µM (inactive)	59.8 µM (inactive)	56 µM (inactive)		> 100 µM (inactive)	46.5 µM (inactive)	> 100 µM (inactive)	64.9 µM (inactive)	> 100 µM (inactive)	29 µM (inactive)	> 100 µM (inactive)	> 100 µM (inactive)	70.5 µM (inactive)	> 100 µM (inactive)	> 100 µM (inactive)	41 µM (inactive)	> 100 µM (inactive)
CSc1c(C#N)c(N)n(-c2ccc(Cl)cc2)c(=O)c1C#N	> 100 µM (inactive)	> 100 µM (inactive)	> 100 µM (inactive)	> 100 µM (inactive)	> 100 µM (inactive)	> 100 µM (inactive)	78 µM (inactive)	> 100 µM (inactive)	> 100 µM (inactive)	> 100 µM (inactive)	> 100 µM (inactive)	> 100 µM (inactive)	> 100 µM (inactive)	> 100 µM (inactive)	> 100 µM (inactive)	> 100 µM (inactive)	> 100 µM (inactive)		> 100 µM (inactive)	> 100 µM (inactive)
CN1CC[C@]2(c3cccc(O)c3)CC(=O)/C(=C/c3ccc(Cl)c(Cl)c3)[C@@H]1C2	1.55 µM (inactive)	1.32 µM (inactive)	1.54 µM (inactive)		1.13 µM (inactive)	0.552 µM (active)	0.455 µM (active)	0.337 µM (active)	1.14 µM (inactive)	1.75 µM (inactive)	1.75 µM (inactive)	1.45 µM (inactive)	0.296 µM (active)	1.63 µM (inactive)	1.55 µM (inactive)	1.05 µM (active)	1.88 µM (inactive)		0.324 µM (active)	1.49 µM (inactive)
